Reference: PubChem BioAssay (NCI)
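Exposure lasted 48 hours, with cells grown in 96-well plates and compounds tested at five concentrations. Here, GI50 denotes the concentration required for 50% inhibition of growth. TGI denotes the concentration required for complete inhibition of growth.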

Columns and labels:
Experiment in all cases: NCI tumour cell line growth inhibition, 48 h
[1] = test system: A549 NSCLC
[2] = test system: NCI-H226 lung
[3] = test system: SF-539 CNS
[4] = test system: SNB-19 CNS
[5] = test system: A498 renal
[6] = test system: CAKI-1 renal
[7] = test system: HOP-62 NSCLC
[8] = test system: HT29 colon
[9] = test system: OVCAR-3 ovarian
[10] = test system: KM12 colon

SMILES | GI50 [1] | TGI [1] | GI50 [2] | TGI [2] | GI50 [3] | TGI [3] | GI50 [4] | TGI [4] | GI50 [5] | TGI [5] | GI50 [6] | TGI [6] | GI50 [7] | TGI [7] | GI50 [8] | TGI [8] | GI50 [9] | TGI [9] | GI50 [10] | TGI [10]
CC(C)C[C@H](NC(=O)[C@@H](Cc1ccccc1)n1ccc(Nc2ccccc2)cc1=O)B(O)O | 0.525 µM | 21.6 µM | 0.164 µM | 0.348 µM | 0.174 µM | 0.484 µM | 0.714 µM | > 100 µM | 0.0262 µM | 0.36 µM | 0.403 µM | 5.45 µM | 1.74 µM | 7.04 µM | 0.342 µM | 15.5 µM | 0.233 µM | 0.561 µM | 0.375 µM | 1.51 µM
COc1ccc(OC)c(C2=C(c3cn(C)c4ccccc34)C(=O)NC2=O)c1 | > 25 µM | > 25 µM | > 25 µM | > 25 µM | > 25 µM | > 25 µM | > 25 µM | > 25 µM | > 15.6 µM | > 25 µM | > 25 µM | > 25 µM | > 25 µM | > 25 µM | > 21.5 µM | > 25 µM | > 25 µM | > 25 µM | 22.4 µM | > 25 µM
COc1ccc2nc3cc([N+](=O)[O-])ccc3c(NCCO)c2c1 | 4.44 µM | 23.9 µM | 3.67 µM | 14.7 µM | 3.35 µM | 13 µM | 2.96 µM | 11.5 µM | 12.7 µM | 32.7 µM | 10.1 µM | 30 µM | 2.07 µM | 5.19 µM | 2.34 µM | 5.13 µM | 2.41 µM | 10.2 µM | 2.17 µM | 6.8 µM
Nc1nc2ccc(CNc3ccc(C(=O)NC(CC(=O)O)C(=O)O)cc3)cc2c(=O)[nH]1 (stereo not drawn) | 0.549 µM |  | > 65.3 µM | > 100 µM | 3.3 µM | > 100 µM | > 82.5 µM | > 100 µM | > 38.9 µM | > 100 µM | 1.37 µM | > 100 µM |  | > 100 µM | 0.67 µM | > 100 µM | 16.2 µM | > 100 µM | 4.3 µM | > 100 µM
